Activity calls are given as the source filed them.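 Rule for the calls: active = inhibition of 50% or more in at least one of the four enzyme panels; inactive = below 50% inhibition in every panel.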
Columns and labels:
Assay in all cases: PAD1-4 inhibition by cherry-picked hits, late-stage follow-up, selectivity assay for PAD4 inhibitor project, biochemical, colorimetric, BAEE substrate, HTS hits (AID 588488)
[1] = biological target: Protein-arginine deiminase type-1 (Homo sapiens) (UniProt Q9ULC6); details: Recombinant PAD1-4, BAEE citrulline colorimetric absorbance; PAD1; at 10 µM; stronger effect = higher value
[2] = biological target: Protein-arginine deiminase type-2 (Homo sapiens) (UniProt Q9Y2J8); details: Recombinant PAD1-4, BAEE citrulline colorimetric absorbance; PAD2; at 10 µM; stronger effect = higher value
[3] = biological target: Protein-arginine deiminase type-3 (Homo sapiens) (UniProt Q9ULW8); details: Recombinant PAD1-4, BAEE citrulline colorimetric absorbance; PAD3; at 10 µM; stronger effect = higher value
[4] = biological target: Protein-arginine deiminase type-4 (Homo sapiens) (UniProt Q9UM07); details: Recombinant PAD1-4, BAEE citrulline colorimetric absorbance; PAD4; at 10 µM; stronger effect = higher value
Protein-arginine deiminase type-4 (Homo sapiens), sequence (Q9UM07 whole entry, looked up): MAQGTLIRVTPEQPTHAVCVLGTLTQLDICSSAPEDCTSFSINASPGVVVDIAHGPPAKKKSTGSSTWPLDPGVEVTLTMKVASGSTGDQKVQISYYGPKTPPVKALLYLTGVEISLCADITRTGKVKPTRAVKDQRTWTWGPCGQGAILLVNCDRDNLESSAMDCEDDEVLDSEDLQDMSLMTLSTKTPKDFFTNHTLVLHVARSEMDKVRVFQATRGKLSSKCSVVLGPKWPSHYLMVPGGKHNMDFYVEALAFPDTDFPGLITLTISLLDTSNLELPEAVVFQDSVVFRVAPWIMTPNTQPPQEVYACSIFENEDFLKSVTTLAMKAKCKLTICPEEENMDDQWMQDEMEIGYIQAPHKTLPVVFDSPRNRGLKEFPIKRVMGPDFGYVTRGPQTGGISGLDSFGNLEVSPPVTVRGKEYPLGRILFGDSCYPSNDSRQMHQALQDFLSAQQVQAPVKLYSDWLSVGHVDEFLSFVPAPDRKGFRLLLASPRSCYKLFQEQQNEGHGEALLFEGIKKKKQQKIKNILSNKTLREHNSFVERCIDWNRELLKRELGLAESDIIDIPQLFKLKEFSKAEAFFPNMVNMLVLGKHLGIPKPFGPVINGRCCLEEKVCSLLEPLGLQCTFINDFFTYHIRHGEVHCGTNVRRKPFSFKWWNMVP

Protein-arginine deiminase type-3 (Homo sapiens), sequence (Q9ULW8 whole entry, looked up): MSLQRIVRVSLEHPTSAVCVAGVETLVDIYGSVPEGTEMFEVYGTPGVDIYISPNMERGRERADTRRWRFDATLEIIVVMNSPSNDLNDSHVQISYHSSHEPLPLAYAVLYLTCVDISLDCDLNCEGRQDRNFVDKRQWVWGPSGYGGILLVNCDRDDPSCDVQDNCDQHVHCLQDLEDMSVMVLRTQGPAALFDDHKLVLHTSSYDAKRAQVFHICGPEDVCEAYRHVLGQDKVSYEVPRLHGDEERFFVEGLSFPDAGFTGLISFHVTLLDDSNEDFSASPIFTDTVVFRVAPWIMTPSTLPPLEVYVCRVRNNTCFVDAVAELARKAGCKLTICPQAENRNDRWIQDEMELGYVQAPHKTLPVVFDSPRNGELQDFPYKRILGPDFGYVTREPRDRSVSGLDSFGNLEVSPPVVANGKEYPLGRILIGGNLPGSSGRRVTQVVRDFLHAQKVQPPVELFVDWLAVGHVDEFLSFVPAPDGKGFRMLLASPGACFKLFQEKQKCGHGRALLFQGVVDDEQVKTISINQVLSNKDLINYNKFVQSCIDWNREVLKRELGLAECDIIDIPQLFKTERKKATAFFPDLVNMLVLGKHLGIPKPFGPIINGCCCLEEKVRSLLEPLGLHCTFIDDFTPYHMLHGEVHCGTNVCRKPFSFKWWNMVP
Protein-arginine deiminase type-1 (Homo sapiens), sequence (Q9ULC6 whole entry, looked up): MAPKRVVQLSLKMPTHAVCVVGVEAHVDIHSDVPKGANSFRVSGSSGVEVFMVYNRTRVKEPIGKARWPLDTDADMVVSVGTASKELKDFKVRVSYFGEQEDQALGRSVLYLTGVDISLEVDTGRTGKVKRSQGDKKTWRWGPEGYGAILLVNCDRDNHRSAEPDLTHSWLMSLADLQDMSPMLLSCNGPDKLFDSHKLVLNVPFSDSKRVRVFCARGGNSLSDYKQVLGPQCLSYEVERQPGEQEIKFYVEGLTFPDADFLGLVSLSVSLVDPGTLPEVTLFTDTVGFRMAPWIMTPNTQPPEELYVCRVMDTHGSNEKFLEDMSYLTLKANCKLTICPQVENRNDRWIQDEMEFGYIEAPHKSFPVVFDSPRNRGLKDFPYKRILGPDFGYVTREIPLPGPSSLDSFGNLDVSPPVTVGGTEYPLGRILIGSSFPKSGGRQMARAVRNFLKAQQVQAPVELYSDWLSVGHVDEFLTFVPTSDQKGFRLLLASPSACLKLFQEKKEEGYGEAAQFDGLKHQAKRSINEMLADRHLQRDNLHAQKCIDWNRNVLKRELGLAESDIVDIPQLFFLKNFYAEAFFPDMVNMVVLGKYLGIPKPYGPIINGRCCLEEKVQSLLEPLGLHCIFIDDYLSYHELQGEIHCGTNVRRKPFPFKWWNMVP
Protein-arginine deiminase type-2 (Homo sapiens), sequence (Q9Y2J8 whole entry, looked up): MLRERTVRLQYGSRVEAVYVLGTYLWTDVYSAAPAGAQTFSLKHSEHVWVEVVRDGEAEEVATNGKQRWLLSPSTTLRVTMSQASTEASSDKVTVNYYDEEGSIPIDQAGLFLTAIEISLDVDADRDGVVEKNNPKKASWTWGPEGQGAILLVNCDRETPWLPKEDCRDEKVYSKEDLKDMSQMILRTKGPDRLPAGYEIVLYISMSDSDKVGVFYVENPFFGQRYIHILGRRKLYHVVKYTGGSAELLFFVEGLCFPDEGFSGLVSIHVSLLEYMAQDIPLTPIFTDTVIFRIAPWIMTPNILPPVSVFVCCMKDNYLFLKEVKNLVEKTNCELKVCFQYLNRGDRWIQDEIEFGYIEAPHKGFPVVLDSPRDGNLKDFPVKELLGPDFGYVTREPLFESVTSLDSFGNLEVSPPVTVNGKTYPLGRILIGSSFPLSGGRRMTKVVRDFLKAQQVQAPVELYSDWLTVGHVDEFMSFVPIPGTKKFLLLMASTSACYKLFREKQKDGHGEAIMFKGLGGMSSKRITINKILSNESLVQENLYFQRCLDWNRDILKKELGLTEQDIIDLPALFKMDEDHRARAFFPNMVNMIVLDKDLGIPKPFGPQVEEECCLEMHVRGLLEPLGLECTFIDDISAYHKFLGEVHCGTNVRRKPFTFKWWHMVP

SMILES | inhibition [1] | inhibition [2] | inhibition [3] | inhibition [4]
COc1ccc(C2C(C#N)=C(N)N(N(C)C)C3=C2C(=O)CCC3)cc1 (configuration not stated) | 9% (inactive) | 7% (inactive) | -1% (inactive) | 21% (inactive)
Cc1c(C(=O)N2CCCCC2)c(S(=O)(=O)N2CCN(c3ccc(Cl)cc3)CC2)c(C)n1C | 6% (inactive) | 4% (inactive) | -6% (inactive) | 15% (inactive)
Cc1ccc(CNC(=O)c2ccc(C)c(S(=O)(=O)N3CCCCC3)c2)cc1 | 21% (inactive) | 15% (inactive) | -2% (inactive) | 13% (inactive)
O=c1cc(-c2ccc(Cl)cc2)[nH][nH]1 | 1% (inactive) | -6% (inactive) | -4% (inactive) | 4% (inactive)
COc1cccc(/C=C2/CN(C)CC3=C2OC(N)=C(C#N)C3c2cccc(OC)c2)c1 (configuration not stated) | 18% (inactive) | 20% (inactive) | -20% (inactive) | 20% (inactive)
O=C(NCC1CCCO1)c1cc2c([nH]c3ccccc32)c(-c2ccc(F)cc2)n1 (configuration not stated) | 5% (inactive) | 20% (inactive) | -2% (inactive) | -3% (inactive)
COc1cccc(NC(=O)CN(C)C(=O)C23CC4CC(CC(Cl)(C4)C2)C3)c1 | 6% (inactive) | 20% (inactive) | -3% (inactive) | 26% (inactive)
COc1cccc2cc(C(=O)NC3CC(C)(C)NC(C)(C)C3)c(=O)oc12 | -2% (inactive) | 3% (inactive) | -2% (inactive) | 17% (inactive)
CCOc1nc(Nc2ccc(OC)cc2OC)nc(OCC)n1 | 27% (inactive) | 12% (inactive) | -2% (inactive) | 9% (inactive)
COc1cccc(NC(=O)C2c3cc(OC)c(OC)cc3C(=O)N(C)C2c2cccnc2)c1 (configuration not stated) | 5% (inactive) | 26% (inactive) | -3% (inactive) | 8% (inactive)
CN(C)CCCNc1cn[nH]c(=O)c1Cl | 27% (inactive) | 20% (inactive) | 2% (inactive) | 42% (inactive)
CN(C)CCN(Cc1ccccc1)c1ccccn1 | -7% (inactive) | 22% (inactive) | -9% (inactive) | 6% (inactive)
Cc1cc2ncn(-c3ncccc3[N+](=O)[O-])c2cc1C | 25% (inactive) | -8% (inactive) | 8% (inactive) | 24% (inactive)
N#CCCn1[nH]c(-c2ccccc2)cc1=O | 3% (inactive) | 39% (inactive) | -12% (inactive) | 28% (inactive)
Cc1ccc(C2CC(=O)Oc3cc(O)ccc32)cc1 (configuration not stated) | 7% (inactive) | 17% (inactive) | -3% (inactive) | 12% (inactive)
N#CCCN(C(=O)Cn1nc(C(=O)O)c2ccccc2c1=O)c1ccccc1 | 13% (inactive) | 10% (inactive) | -12% (inactive) | 17% (inactive)
CC(NC(=O)Nc1ccc(O)cc1)(C(F)(F)F)C(F)(F)F | 8% (inactive) | -10% (inactive) | -11% (inactive) | 14% (inactive)
CCN(CC)S(=O)(=O)c1ccc(N=NC2=C(O)CCCC2=O)cc1 | 0% (inactive) | 15% (inactive) | 17% (inactive) | 10% (inactive)
S=C(NCc1ccco1)Nc1cccc(Cl)c1 | 17% (inactive) | 13% (inactive) | -2% (inactive) | 11% (inactive)
Cc1nn(-c2cccc(Cl)c2)c2c1C(c1cccnc1)C(C#N)=C(N)O2 (configuration not stated) | -3% (inactive) | 7% (inactive) | -4% (inactive) | 1% (inactive)

Next, values leading:

inhibition [1] | inhibition [2] | inhibition [3] | inhibition [4] | SMILES
10% (inactive) | 15% (inactive) | -14% (inactive) | 6% (inactive) | COC(=O)c1cc(C)nc(Sc2ccccc2N)n1
8% (inactive) | 27% (inactive) | 7% (inactive) | 12% (inactive) | Cc1nonc1OC(C)CNc1ccc([N+](=O)[O-])cc1 (configuration not stated)
3% (inactive) | 18% (inactive) | 6% (inactive) | 16% (inactive) | CCN(CC)c1cccc(OC2=NS(=O)(=O)c3ccccc32)c1
2% (inactive) | 17% (inactive) | -3% (inactive) | 16% (inactive) | Cc1nn(-c2ccccc2)c(C)c1NC(=O)COc1ccc(Cl)cc1Cl
1% (inactive) | 6% (inactive) | -7% (inactive) | -1% (inactive) | Cc1cc(-c2nnc(SCC(=O)Nc3ccc(F)c(F)c3)n2N)n[nH]1
22% (inactive) | 3% (inactive) | -18% (inactive) | 0% (inactive) | Cc1c(NC(=O)CSc2nccn2C)c(=O)n(-c2ccccc2)n1C
5% (inactive) | 9% (inactive) | -24% (inactive) | 3% (inactive) | COc1ccc(CCNC(=O)COC(=O)c2ccc(C)s2)cc1
31% (inactive) | 14% (inactive) | -3% (inactive) | 18% (inactive) | COc1ccc(S(=O)(=O)Nc2ccccc2C)cc1
4% (inactive) | 21% (inactive) | -3% (inactive) | 16% (inactive) | CC(=O)N(Cc1cc(=O)[nH]c2ccccc12)c1cccc(C)c1
5% (inactive) | 17% (inactive) | -6% (inactive) | 1% (inactive) | Cc1cc(N(C)NC(=S)Nc2ccccc2)nc(C)n1
14% (inactive) | 26% (inactive) | 3% (inactive) | 20% (inactive) | COc1ccc(-c2cc(=O)[nH][nH]2)cc1
8% (inactive) | 45% (inactive) | 3% (inactive) | 25% (inactive) | Cn1c(=O)c2c(ncn2CC(=O)Nc2nc(-c3ccccc3Cl)cs2)n(C)c1=O
17% (inactive) | 9% (inactive) | -19% (inactive) | 18% (inactive) | Cc1oc2c(C)c(O)ccc2c(=O)c1-c1ccc2ccccc2n1
